Assay results published in patent US20100190849A1, “Novel Clerodanes and Methods for Repelling Arthropods” (priority 2006, published 2010).
Marks after values point to notes of the source that are not given here.

Legend:
[1] = tested on: black imported fire ants, Solenopsis richteri Forel; experiment: Multiple-choice digging bioassay, fire ant workers; format: in vivo
Experimental: (§1) The repellency of the two terpenoids, callicarpenal and intermedeol, against workers of red imported fire ants, Solenopsis invicta Buren, black imported fire ants, Solenopsis rickeri Forel, and a hybrid of these two species was evaluated using multiple-choice digging bioassays (Tables 9 & 10). […] Callicarpenal and intermedeol were compared with octanoic acid, a known fire ant repellant, at the 25.00 ppm level using two-choice digging bioassays (FIGS. 3 and 4).
(§2) Ants: Two Solenopsis invicta colonies were collected in Sharkey County, Mississippi, and two Solenopsis richteri colonies were collected in Granada County, Mississippi. Two colonies of the hybrid (S. invicta×S. richteri) colony were collected in Sunflower County, Mississippi. Fire ant mounds were shoveled and placed in 19-L plastic buckets. The inside wall of the bucket was then coated with baby powder (Cumberland Swan Holdings, Inc., Smyrna, Tenn.) to prevent ant escape. Following the water-drip method developed by Bank et al. (Banks, W. A., et al., Techniques for collecting, rearing, and handling imported fire ants, USDA SEA AATS-S-21 (1981)), ants were separated and then placed in a 44.5×60.0×13.0 cm plastic tray with inside walls coated with Fluon® (Ag Fluoropolymers, Chadds Ford, Pa.). Distilled water and 15% (w/v) sucrose water solution in separated test tubes which were plugged with cotton balls were placed in the trays. Heliocoverpa zea (Boddie) and tobacco budworm, Heliothis virescens (Fabricius) pupae were used as food sources. Inside each tray were one to three 14.0×2.0 cm Petri dishes with 1.0 cm of hardener dental plaster (Castone®; Dentsply International Inc. York, Pa.) on the bottom. Also, in the center of the Petri dish was a 5.0-cm diameter brood chamber. Two 8-mm access holes were made on the wall of the petri dish above the dental plaster. The Petri dish lid was painted black (1302 Gloss Black Spray Enamel, Louisville, Ky.)to block the light. All colonies were maintained at 22-25° C.
(§3) Fire ant workers dug and removed sand from the tube through the entry hole. The differences in the amount of removed sand among treated and control tubes were used to evaluate chemical repellency. Four 2 ml centrifuge tubes were mounted under a 14.0×2.3 cm Petri dish using glue (Arrow Fastener Co., inc., Saddle Brook, N.J.). Tubes were 5.0 cm away from the center of the Petri dish and at equal distance from each other. A 3-mm diameter access hole was drilled for each centrifuge tube, which went through the bottom of the Petri dish and the cap of the tube. The inner side of the Petri dish was coated with Fluon. Three concentrations of a test compound and one control were set up in each apparatus. Six concentrations, including […], 6.25, 12.50, and 25.00 ppm, were tested in two separated bioassays for each species and hybrid; however three more concentrations of callicarpenal, 50.00, 100.00, and […], were tested for S. invicta. Sand (Premium Play Sand, Plassein International, Longview, Tex.) was first sieved through a ™35 U.S.A. standard testing sieve (Thomas Scientific, Swedesboro, N.J.) and then washed with distilled water and dried at 350° C. for 12 h. A 3 ml dichloromethane solution of callicarpenal or intermedeol was mixed with 30 g sand in an aluminum pan. The sand was stirred every 2 min to facilitate the evaporation of the solvent under a fume hood. After dichloromethane evaporated (5 minutes), 1.92 ml distilled water was added and mixed with sand. Sand in the control tube was treated only with dichloromethane. In each tube a mean (±SD) 2.78 g (±0.06 g) wet sand was added. There was no open space inside the tube. Locations of each concentration were randomized. Fifty fire ant workers were introduced into the center of the Petri Dish. The experiment was conducted at 22±0.8° C. (mean±SD) temperature and 45.4%±11.87% relative humidity. After 24 h, sand in each vial was collected, dried at 150° C. for at least 4 hour, and weighed. […]

[2] = tested on: hybrid (S. invicta×S. richteri); experiment: Multiple-choice digging bioassay, fire ant workers; format: in vivo
Experimental: as §1, §2, §3

[3] = tested on: red imported fire ants, Solenopsis invicta Buren; experiment: Multiple-choice digging bioassay, fire ant workers; format: in vivo
Experimental: as §1, §2, §3

S. invicta = experiment: Two-choice digging bioassay, head-to-head against octanoic acid; format: in vivo, Solenopsis invicta; conditions: 25.00 ppm; both S. invicta colonies; FIGS. 3 and 4
Experimental: as §1
Head-to-head comparison on repellency of callicarpenal and intermedeol against octanoic acid: The bioassay apparatus was similar as described above, except a smaller Petri dish (8.7×2.3 cm) was used and only two choices were presented: one was sand treated with callicarpenal or intermedeol and the other with octanoic acid. Two choices were opposite each other across the center of the Petri dish and each was 3.0 cm away from the center. All compounds were tested at a 25.00 ppm level. Sand preparation was similar as described above. Ants from the same colonies as above were used in this experiment. There were five replications for each pair of comparisons. A paired t-test (critical P-value=0.05) was used to compare the mean amount of sand removed between two tubes.

CC1=CCC[C@@H]2[C@@](C)(CC=O)[C@H](C)CC[C@@]12C [callicarpenal, 13,14,15,16-tetranorclerod-3-en-12-al]
Sand removed (SE), mean weight of sand removed by ants 24 h after release ([1]; S. richteri colony 1, Exp. 7, 0.75 ppm): 0.40 (0.16) g
Sand removed (SE), mean weight of sand removed by ants 24 h after release ([1]; S. richteri colony 1, Exp. 7, 1.50 ppm): 0.28 (0.12) g
Sand removed (SE), mean weight of sand removed by ants 24 h after release ([1]; S. richteri colony 1, Exp. 7, 3.15 ppm): 0.21 (0.13) g
Sand removed (SE), mean weight of sand removed by ants 24 h after release ([1]; S. richteri colony 1, Exp. 8, 6.25 ppm): 0.10 (0.04)* g
Sand removed (SE), mean weight of sand removed by ants 24 h after release ([1]; S. richteri colony 1, Exp. 8, 12.50 ppm): 0.40 (0.17)* g
Sand removed (SE), mean weight of sand removed by ants 24 h after release ([1]; S. richteri colony 1, Exp. 8, 25.00 ppm): 0.08 (0.04)* g
Sand removed (SE), mean weight of sand removed by ants 24 h after release ([1]; S. richteri colony 2, Exp. 9, 0.75 ppm): 0.27 (0.16) g
Sand removed (SE), mean weight of sand removed by ants 24 h after release ([1]; S. richteri colony 2, Exp. 9, 1.50 ppm): 0.85 (0.22) g
Sand removed (SE), mean weight of sand removed by ants 24 h after release ([1]; S. richteri colony 2, Exp. 9, 3.15 ppm): 0.17 (0.11) g
Sand removed (SE), mean weight of sand removed by ants 24 h after release ([1]; S. richteri colony 2, Exp. 10, 6.25 ppm): 0.10 (0.04)* g
Sand removed (SE), mean weight of sand removed by ants 24 h after release ([1]; S. richteri colony 2, Exp. 10, 12.50 ppm): 0.10 (0.04)* g
Sand removed (SE), mean weight of sand removed by ants 24 h after release ([1]; S. richteri colony 2, Exp. 10, 25.00 ppm): 0.01 (0.002)* g
Sand removed (SE), mean weight of sand removed by ants 24 h after release ([2]; Hybrid colony 1, Exp. 11, 0.75 ppm): 0.66 (0.09) g
Sand removed (SE), mean weight of sand removed by ants 24 h after release ([2]; Hybrid colony 1, Exp. 11, 1.50 ppm): 0.59 (0.10) g
Sand removed (SE), mean weight of sand removed by ants 24 h after release ([2]; Hybrid colony 1, Exp. 11, 3.15 ppm): 0.30 (0.11) g
Sand removed (SE), mean weight of sand removed by ants 24 h after release ([2]; Hybrid colony 1, Exp. 12, 6.25 ppm): 0.53 (0.13)* g
Sand removed (SE), mean weight of sand removed by ants 24 h after release ([2]; Hybrid colony 1, Exp. 12, 12.50 ppm): 0.26 (0.05)* g
Sand removed (SE), mean weight of sand removed by ants 24 h after release ([2]; Hybrid colony 1, Exp. 12, 25.00 ppm): 0.39 (0.14)* g
Sand removed (SE), mean weight of sand removed by ants 24 h after release ([2]; Hybrid colony 2, Exp. 13, 0.75 ppm): 0.53 (0.14) g
Sand removed (SE), mean weight of sand removed by ants 24 h after release ([2]; Hybrid colony 2, Exp. 13, 1.50 ppm): 0.36 (0.09) g
Sand removed (SE), mean weight of sand removed by ants 24 h after release ([2]; Hybrid colony 2, Exp. 13, 3.15 ppm): 0.58 (0.12) g
Sand removed (SE), mean weight of sand removed by ants 24 h after release ([2]; Hybrid colony 2, Exp. 14, 6.25 ppm): 0.47 (0.09)* g
Sand removed (SE), mean weight of sand removed by ants 24 h after release ([2]; Hybrid colony 2, Exp. 14, 12.50 ppm): 0.30 (0.11)* g
Sand removed (SE), mean weight of sand removed by ants 24 h after release ([2]; Hybrid colony 2, Exp. 14, 25.00 ppm): 0.21 (0.11)* g
concentration at which significant repellency was shown ([2]; hybrid, two colonies, in sand, 24 h): ≥ 6.25 ppm
Sand removed (SE), mean weight of sand removed by ants 24 h after release ([3]; S. invicta colony 1, Exp. 1, 0.75 ppm): 0.19 (0.07) g
Sand removed (SE), mean weight of sand removed by ants 24 h after release ([3]; S. invicta colony 1, Exp. 1, 1.50 ppm): 0.24 (0.15) g
Sand removed (SE), mean weight of sand removed by ants 24 h after release ([3]; S. invicta colony 1, Exp. 1, 3.15 ppm): 0.40 (0.20) g
Sand removed (SE), mean weight of sand removed by ants 24 h after release ([3]; S. invicta colony 1, Exp. 2, 6.25 ppm): 0.21 (0.12) g
Sand removed (SE), mean weight of sand removed by ants 24 h after release ([3]; S. invicta colony 1, Exp. 2, 12.50 ppm): 0.48 (0.19) g
Sand removed (SE), mean weight of sand removed by ants 24 h after release ([3]; S. invicta colony 1, Exp. 2, 25.00 ppm): 0.08 (0.05) g
Sand removed (SE), mean weight of sand removed by ants 24 h after release ([3]; S. invicta colony 1, Exp. 3, 50.00 ppm): 0.04 (0.004)* g
Sand removed (SE), mean weight of sand removed by ants 24 h after release ([3]; S. invicta colony 1, Exp. 3, 100.00 ppm): 0.02 (0.008)* g
Sand removed (SE), mean weight of sand removed by ants 24 h after release ([3]; S. invicta colony 1, Exp. 3, 150.00 ppm): 0.03 (0.007)* g
Sand removed (SE), mean weight of sand removed by ants 24 h after release ([3]; S. invicta colony 2, Exp. 4, 0.75 ppm): 0.32 (0.16) g
Sand removed (SE), mean weight of sand removed by ants 24 h after release ([3]; S. invicta colony 2, Exp. 4, 1.50 ppm): 0.32 (0.15) g
Sand removed (SE), mean weight of sand removed by ants 24 h after release ([3]; S. invicta colony 2, Exp. 4, 3.15 ppm): 0.36 (0.11) g
Sand removed (SE), mean weight of sand removed by ants 24 h after release ([3]; S. invicta colony 2, Exp. 5, 6.25 ppm): 0.24 (0.21) g
Sand removed (SE), mean weight of sand removed by ants 24 h after release ([3]; S. invicta colony 2, Exp. 5, 12.50 ppm): 0.45 (0.18) g
Sand removed (SE), mean weight of sand removed by ants 24 h after release ([3]; S. invicta colony 2, Exp. 5, 25.00 ppm): 0.02 (0.01) g
Sand removed (SE), mean weight of sand removed by ants 24 h after release ([3]; S. invicta colony 2, Exp. 6, 50.00 ppm): 0.02 (0.007)* g
Sand removed (SE), mean weight of sand removed by ants 24 h after release ([3]; S. invicta colony 2, Exp. 6, 100.00 ppm): 0.08 (0.06)* g
Sand removed (SE), mean weight of sand removed by ants 24 h after release ([3]; S. invicta colony 2, Exp. 6, 150.00 ppm): 0.07 (0.03)* g
concentration at which significant repellency was shown ([3]; S. invicta, two colonies, in sand, 24 h): ≥ 50.00 ppm
repellency compared with octanoic acid (in words) (S. invicta): no significant difference
